One compound from US20160235677A1, “METHOD OF CONVERTING A CRYSTALLINE COMPOUND TO AN AMORPHOUS COMPOUND, METHOD OF INCREASING THE SOLUBILITY OF A CRYSTALLINE COMPOUND IN A BIORELEVANT FLUID, AND NANOPARTICLES THAT ACHIEVE SUPERSATURATION” (Nanocopoeia, LLC., priority 2014, published 2016) can be followed below.

Broadly, the Cmax is the maximum level reached in the sampled fluid or tissue. What is called Tmax is the time at which the peak concentration occurs. Usually Papp A→B stands for how fast a substance crosses the layer from the apical side.

The nature of series [1]: Dissolution in Biorelevant Medium Using Non-Sink Condition (griseofulvin powders in FaSSIF). As to conditions: GF dissolution in FaSSIF, 5 hour experiment. Type of series: physicochemical. How it is done: A modified low-volume shaker flask method is used to assess the dissolution behavior of samples under supersaturated conditions. A 75 mL aliquot of FaSSIF, adjusted to pH 6.5, is added to each of six 150 mL Erlenmeyer flasks, which are then stoppered. The liquid is then heated to and maintained at 37° C.±1° C. using a benchtop incubated orbital shaker with a multi position stir plate (Forma Scientific 4520, Thermo Fisher Scientific, Waltham, Mass.). A 38 mm×9 mm stir bar is placed in each flask and stirring is started at 150 rotations per minute (RPM). A control sample, containing the compound of interest, and experimental samples are added to separate flasks in amounts sufficient to provide an amount of the compound of interest equivalent to the control sample. At each of 5 min, 15 min, 20 min, 30 min, 45 min, 60 min, 120 min, 240 min, and 300 min, 3 mL of dissolution media is removed from each flask, and immediately filtered through a 13 mm, 0.2 μm nylon filter with glass prefilter (EMD Millipore, Billerica, Mass.) after first discarding the first 2 mL of the sample. […]
The HPLC analysis is performed using an Ace C18, 2.1×150 mm, 3 μm chromatographic column maintained at 30° C. […] Quantification is performed based on linear calibration curve ranging from 10 ng/mL to 1000 ng/mL using peak response ratio.
For the Dissolution in Biorelevant Medium Using Non-Sink Condition analysis, a 24 mg sample of Control 1, i.e., griseofulvin powder, and an amount of Examples 1-7 sufficient to provide an amount of griseofulvin equivalent to the amount of Control 1, i.e., 24 mg, was added to each flask. Quantification was performed based on linear calibration curve ranging from 10 to 1000 ng/mL using peak response ratio. […]
Dry powder produced as describe above in Examples 8-11 was evaluated in the biorelevant medium FaSSIF, comparing ENS-processed powders with physical mixtures at similar ratios of GF:SP. […]

The nature of series [2]: Equilibrium / saturation solubility in test media. To be noted: GF, previously measured. Type of series: physicochemical.
Series [3] in a line: Caco-2 Monolayer Test Method. It is filed as in vitro ADME. As to conditions: human; Caco-2 monolayers, apical to basolateral, powder equivalent to 200 μg GF in 1 mL buffer pH 7.4, 2 h. How it is done: Caco-2 monolayers are prepared in Millipore 96-cell Caco-2 plates and are used after a 3-week differentiation period. The monolayers separate the apical, or donor well, from the basolateral, or recipient well. The buffer used for the apical side is 1.98 g/L glucose in 10 mM HEPES, Hank's Balanced Salt Solution (HBSS) lx, with calcium, magnesium, without phenol red (HyClone, Logan, Utah) pH 7.4. The impermeable dye Lucifer yellow (in an amount of 100 μM) is added to test monolayer integrity. The basolateral side buffer is buffer, pH 7.4, without dye. […] The amount of test powder is selected to assure that if the powder was completely dissolved, the amount is sufficient to achieve ˜12 to 13 times the saturation concentration of the compound of interest previously measured in HBSS (15 μg/mL), in other words, a supersaturated solution. […] Where the compound of interest is not a substrate for p-glycoprotein (pGP), B→A efflux is not measured.
Buffer test samples are added to apical wells at 1 h after preparation and buffer alone is added to the basolateral side. […] The plates are assumed to be intact if there is no increase in fluorescence from leaking Lucifer yellow dye from the apical side. Individual cell monolayers are assumed intact if there is no increase in fluorescence in aliquots taken from the basolateral wells. […]

Series [4] can be described thus: X-Ray Powder Diffraction (XRD) crystallinity / physical state. It is filed as physicochemical. As to conditions: griseofulvin materials, result in words. How it is done:
X-ray powder diffraction is performed at room temperature using a Bruker D8 Discover using a Cu Kα radiation, point source filtered with a graphite monochromator and a Bruker Hi-Star two-dimensional x-ray detector (Bruker, Karlsruhe, Germany). Powder samples are pressed onto a sample holder made of single-crystal quartz cut off-axis. The reflected intensity is collected at 0.04° resolution from 2Θ=2° to 62° with an acquisition time of 20 minutes. Data analysis is performed using the JADE 8.0 software package (Materials Data Inc., Livermore, Calif.) with whole pattern fitting. The test method has a detection limit of 2% crystallinity. […]

The mark [5] stands for this setting: non-sink, 24 mg GF equivalent in 75 mL, 37° C.

Each structure is given as a SMILES string. In brackets after ≈: the same amount, converted by molar mass. Where two headings read alike, the source gives them in different places.

On to `COC1=CC(=O)C[C@@H](C)[C@]12Oc1c(Cl)c(OC)cc(OC)c1C2=O` [Control 1, (+)-griseofulvin], for which the “Cmax” value in series [1] (setting [5]) is 18.3 µg/mL. Besides, the “Tmax” value in series [1] (setting [5]) amounted to 30 min. Also, the AUC in series [1] (area under the concentration-time curve) is 5,202. Besides, the solubility thermodynamic in series [2] (HBSS, saline or isotonic, read-out: saturation concentration in HBSS) is 0.015 mg/mL (≈ 42.5 µM); in series [2] (water, thermodynamic from solid, read-out: equilibrium solubility in water), 0.006 to 0.01 mg/mL (≈ 17 to 28.3 µM). In addition, the Papp A→B at 2 h, 200 μg/mL in series [3] worked out at 280 ± 25 nm/s. In addition, the “physical state by XRD” value in series [4] is listed as “completely crystalline material”.
